# According to patent US8470779B2, “Catecholamine regulated protein” (CRP40 Inc., priority 2005, dated 2013):
# B1: CRP40 protein: 346 amino acid catecholamine-regulated protein, SEQ ID NO: 8 (protein, listed as Homo sapiens)
# chain: MDSSGPKHLNMKLTRAQFEGIVTDLIRRTIAPCQKAMQDAEVSKSDIGEVILVGGMTRMPKVQQTVQDLFGRAPSKAVNPDEAVAIGAAIQGGVLAGDVTDVLLLDVTPLSLGIETLGGVFTKLINRNTTIPTKKSQVFSTAADGQTQVEIKVCQGEREMAGDNKLLGQFTLIGIPPAPRGVPQIEVTFDIDANGIVHVSAKDKGTGREQQIVIQSSGGLSKDDIENMVKNAEKYAEEDRRKKERVEAVNMAEGIIHDTETKMEEFKDQLPADECNKLKEEISKMRELLARKDSETGENIRQAASSLQQASLKLFEMAYKKMASEREGSGSSGTGEQKEDQKEEKQ
# Assays:
# [1] = test system: human CRP40 expression in DRD2 transfected SH-SY5Y human neuroblastoma cells; test: Western immunoblotting of BQ/human CRP40 expression in DRD2 transfected SH-SY5Y cells; assay type: cell-based; settings: 100 μM; for BQ expression compared to controls: overnight, DA D2 receptor transfected SH-SY5Y cells
# Method: The pcDNA 3.1(+) vector was introduced into SH-S Y5 Y cells by lipofection method (Invitrogen Life Science technology. U.S.A.). Briefly, 24 μg of DRD2 plasmid DNA was mixed with 1.5 ml of Opti MEM media and 60 μl of lipofectamine 2000 reagent was added and mixed with 1.5 ml of Opti MEM media and SH-SY5Y cells. Geneticin-resistant clones stably expressing the D2L receptor were screened by a [3H] spirerone-binding assay and was maintained in RPMI medium (RPMI contained 10% fetal bovine serum, 1 mM glutamate, 50 U/ml of penicillin, and 50 U/ml of streptomycin) with 200 μg/ml of geneticin. Cells were grown to confluency (5-6 days following sub-culturing) in fresh RPMI medium.
# SH-SY5Y cells were scraped off and this procedure was repeated a second time. The cells were incubated 5 min, centrifuged at 2000 rpm for 5 min and the supernatant was discarded. The pellet was re-suspended in 0.5 ml 0.35M sucrose buffer (wPMSF), homogenized and centrifuged at 1000 g for 10 min. The supernatant was centrifuged and the pellet was re-suspended in a 0.32M sucrose buffer (wPMSF), homogenized, and centrifuged. The pellet was re-suspended 0.053 ml Tris-EDTA PMSF and labeled as nuclear fraction 1. The supernatant was centrifuged and the resulting supernatant was stored and labeled cytosolic fraction 1. The remaining pellet was re-suspended in 0.150 ml Tris-EDT A-PMSF and labeled mitochondrial fraction 1.
# The cells were exposed to the neurotransmitter and/or the neuroleptic (antipsychotic) and left overnight. Western immunoblotting with BQ primary antibody was performed, followed by immunoblotting with polyclonal conjugated horseradish peroxidase secondary antibody.
# human CRP40 = test: Immunohistochemistry localization of human CRP40 in post-mortem nucleus accumbens; settings: post-mortem NA slide of schizophrenic patient treated with large doses of HAL
# Method: Three slides were chosen from the 60 samples generously donated by The Stanley Foundation. The slides consisted of: 1) control; 2) schizophrenia patient-drug free; 3) schizophrenic patient-15000K, HAL-treated. The slides were incubated with 4% formaldehyde and diluted in PBS for 30 min. Immediately following, washed sections 3 times with PBS for 5 min, each time and dried off each slide as close as possible to the tissue and outlined the section with the hydrophobic pen. The sections were then blocked by incubating sections with 3% normal goat serum*(NGS) (diluted in PBS containing 0.6% Triton X-100) for 1 h. Next, incubated slides with primary human CRP40 polyclonal antibody diluted in PBS containing 0.6% Triton X-100 (and 3% NGS if necessary) overnight at 4° C. (wrapped in aluminum foil). The following day, the slides were washed 3 times with PBS for 5 min, each time, and incubated slides with FITC secondary antibody diluted in PBS containing 0.6% Triton X-100 for 4 h. Next, the sections were washed 6 times in PBS and slides were mounted with appropriate cover-slips and fixed with nail polish.
# Three slides containing post mortem brain specimens of the NA were used in immunohistochemistry studies. […] The next day, the slides were analyzed using a confocal microscope (McMaster University).
# [2] = target: T1, recombinant human CRP40 (BQ-fusion protein) (Homo sapiens, UniProt P38646); test: [3H]-NPA protein-binding assay with BQ-fusion protein; settings: 100 μM, third of three NPA entries
# T1 construct: a fragment of 720 base pairs (Genbank #BQ224193) was amplified; GST (Schistosoma japonicum glutathione S-transferase, pGEX-2T) (N); made in house; host or cells: E. coli BL21 (pGEX-2T)
# T1 sequence (P38646 334-578 E571K/D572N/R574P): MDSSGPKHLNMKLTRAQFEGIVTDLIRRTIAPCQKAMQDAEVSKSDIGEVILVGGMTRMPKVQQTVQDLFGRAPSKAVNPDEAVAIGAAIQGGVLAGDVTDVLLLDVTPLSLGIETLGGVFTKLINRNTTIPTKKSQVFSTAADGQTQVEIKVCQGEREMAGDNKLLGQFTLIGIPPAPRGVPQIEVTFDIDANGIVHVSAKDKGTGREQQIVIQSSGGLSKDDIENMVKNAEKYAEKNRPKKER
# Method: Briefly, the assays were performed in triplicate and consisted of the following solutions and protocol: 50 mM TRIS, 5.0 mM mgCl2, 1.0 mM EDTA, 0.ImM DTT, 0.ImM PMSF, 100 mg/ml Bacitracin and 5.0 mg/ml soybean trypsin; DA (mw=189.6) was dissolved in 0.1% ascorbic acid; each tube was vortexed briefly and incubated in a shaking water bath at 37° C., for 2 h; receptor binding equipment (Brandel, U.S.A.) washed 3 times with distilled water; then repeated washes in assay buffer, 50 nM TRIS, 1 mM EDTA, pH 7.4; 18 test-tubes were set on the binding platform and fiberglass filter paper was put on the platform. The samples were passed through the filter paper with 3 consecutive washes; placed in the scintillation tubes and 5.0 ml Biodegradable Counting Scintillant was added and radioactive counts were measured (Amersham, U.S.A.).
# The first protein binding study involved [3+H]NPA and 3 different concentrations of displacement molecules (DA, NPA), 100 μM, 10 μM and 1 μM, respectively. Following protein binding, DPM counts were performed in a Beckman scintillation counter.
# [3] = test system: 6-OHDA lesioned hemi-Parkinson's rat model; test: Apomorphine-induced turning behaviour after striatal injection; assay type: in vivo; settings: for apomorphine-induced rotational symptoms: striatal injection on lesioned side
# From the text: This research study examined the potential of CRP40 as a therapeutic in Parkinson's disease (PD). It has been shown herein that dopamine (DA) can modulate CRP40 expression. Further, knockdown of CRP40 in the medial prefrontal cortex (mPFC) caused deficits in DA-dependant behaviours related to human disease. This study investigated whether the introduction of CRP40 into the lesioned region of a rat model of PD would reduce or reverse symptoms associated with PD compared to control animals. This model is a well-established one in which the nigrostriatal system is hemi-laterally lesioned by injection of the cytotoxin 6-hydroxydopamine (6-OHDA). These animals show phenotypic rotating behaviour as a result of the hemi-lesion.
# (§1) The treatment groups were the following: Group 1 (n=3; males) were hemi-lesioned animals treated with a sham injection (CSF) to the Striatum; Group 2 (n=3; males) were hemi-lesioned animals treated with Mortalin2 plasmid injection to the Striatum; Group 3 (n=3; males) were hemi-lesioned animals treated with CRP40 plasmid injection to the Striatum; Group 4 (n=2; males) were hemi-lesioned animals treated with Mortalin2 protein injection to the Striatum; Group 5 (n=2; males) were hemi-lesioned animals treated with CRP40 protein injection to the Striatum; Group 6 (n=3; males) were controls, non-lesioned, and received a CSF injection to the Striatum.
# Once the animals were comfortable with the experimenter, they were subjected to a series of behavioural tests for baseline measures. In addition to the apomorphine-induced rotation, other tests included prepulse inhibition (PPI) and locomotor activity tests. The apomorphine-induced rotations test involves giving each animal a subcutaneous injection of apomorphine according to body weight. Since the animals are lesioned hemi-laterally at the nigrostriatal pathway, they show compulsive turning behaviour in a direction contra-lateral to the lesion. For this project, there was interest in the number of rotations each animal made in a ten minute testing period. PPI is a test of sensorimotor gating where animals are exposed to a startling acoustic pulse. This pulse, however, follows a subtle pre-pulse which allows for inhibition of the startle response. Locomotor activity test involves cubic chambers lined with infrared sensors that detect any and all movements made by the animal over a three hour testing period. For this experiment “total distance travelled” measurements were of interest.
# Once all baseline data was collected, the rats were placed under gaseous anaesthesia and injected, via cannulae, with one of the five following treatments: CSF sham (Striatal n=3), CRP40 plasmid DNA (Striatal n=3), MOT-2 plasmid DNA (Striatal n=3), CRP40 protein (Striatal n=2), MOT-2 protein (Striatal n=2). […]
# [4] = test system: 6-OHDA lesioned hemi-Parkinson's rat model; test: HPLC of DA levels in SN and striatum; assay type: in vivo; settings: striatal-injected rats
# From the text: as §1
# Once all baseline data was collected, the rats were placed under gaseous anaesthesia and injected, via cannulae, with one of the five following treatments: CSF sham (Striatal n=3), CRP40 plasmid DNA (Striatal n=3), MOT-2 plasmid DNA (Striatal n=3), CRP40 protein (Striatal n=2), MOT-2 protein (Striatal n=2).
# After recovery from surgery, all animals were again tested using the same behavioural methods for post-intervention measures. PPI and locomotor activity were tested at 7 and 14 days post-injection, and apomorphine-induced rotation was tested at various time points between days 2 and 14 post-injection. On day 15 post-injection, all rats were sacrificed. […]
molecule,measurement,setting,value
"O=C(CCCN1CCC(O)(c2ccc(Cl)cc2)CC1)c1ccc(F)cc1 [Haloperidol, haloperidol]",BQ expression compared to controls,[1],significant increase
same,localization of human CRP40 antibody staining,human CRP40,located almost exclusively within the nucleus
"CCCN1CCc2cccc3c2[C@H]1Cc1ccc(O)c(O)c1-3 [NPA, N-propylnorapomorphine]",amount of displacement of [3H]NPA,[2],64.3%
"NCCc1ccc(O)c(O)c1 [DA, dopamine]",human CRP40 protein expression in the nuclear fraction relative to control cells,[1]; SH-SY5Y nuclear fraction,significant increase
same,BQ expression compared to controls,[1],significant increase
B1,apomorphine-induced rotational symptoms,[3]; day 10 post-injection,alleviated
same,apomorphine-induced rotational symptoms,[3]; day 14 post-injection,beginning to increase again
same,apomorphine-induced rotational symptoms,[3]; days 4 and 7 post-injection,reversal of rotational symptoms
same,"apomorphine-induced rotational symptoms, overall","[3]; striatal injection, no time point stated",completely reversed
same,levels of DA in the SN & striatum (HPLC),[4],increase in dopamine concentration at both the SN and the striatum
